Experimental data taken from ChEMBL document CHEMBL1909046, “DrugMatrix in vitro pharmacology data”.

Columns and labels:
[1] = DRUGMATRIX: beta-Lactamase enzyme inhibition (substrate: Nitrocefin); parameters: species or system Bacillus cereus; conditions: Not Active = under 50% inhibition at 10 µM
[2] = molecular target: 5-hydroxytryptamine receptor 6 (Homo sapiens, UniProt P50406); type: cell membranes, HeLa, Membrane; further: in other assays of this panel Not Active means under 50% inhibition at 10 µM
Carbonic anhydrase 2 = Carbonic anhydrase 2 (Homo sapiens, UniProt P00918); assay: DRUGMATRIX: Carbonic Anhydrase II enzyme inhibition (substrate: 4-Nitrophenyl acetate (4-NPA)); type: tissue-based, Erythrocyte; conditions: erythrocyte; Not Active = under 50% inhibition at 10 µM
Cytochrome P450 2C19 = Cytochrome P450 2C19 (Homo sapiens, UniProt P33261); further: in other assays of this panel Not Active means under 50% inhibition at 10 µM
[3] = molecular target: T1, Alpha-2A adrenergic receptor (Homo sapiens, UniProt P08913); type: cell membranes, Sf9, Membrane; conditions: sf9; further: in other assays of this panel Not Active means under 50% inhibition at 10 µM
T1 sequence (P08913 whole entry): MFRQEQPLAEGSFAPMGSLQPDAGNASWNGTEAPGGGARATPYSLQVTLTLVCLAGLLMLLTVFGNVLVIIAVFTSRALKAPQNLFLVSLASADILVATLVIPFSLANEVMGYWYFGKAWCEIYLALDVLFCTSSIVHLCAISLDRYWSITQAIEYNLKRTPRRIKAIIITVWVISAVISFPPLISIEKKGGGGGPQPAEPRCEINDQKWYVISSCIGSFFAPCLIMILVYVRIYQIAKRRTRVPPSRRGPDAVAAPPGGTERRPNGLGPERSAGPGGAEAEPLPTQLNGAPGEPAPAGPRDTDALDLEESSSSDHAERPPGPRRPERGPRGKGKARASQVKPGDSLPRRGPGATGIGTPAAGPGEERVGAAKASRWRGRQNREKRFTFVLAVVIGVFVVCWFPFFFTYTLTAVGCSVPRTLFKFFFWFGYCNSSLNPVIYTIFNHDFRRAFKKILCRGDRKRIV

Cytochrome P450 1A2 = molecular target: T2, Cytochrome P450 1A2 (Homo sapiens, UniProt P05177); further: in other assays of this panel Not Active means under 50% inhibition at 10 µM
T2 sequence (P05177 whole entry): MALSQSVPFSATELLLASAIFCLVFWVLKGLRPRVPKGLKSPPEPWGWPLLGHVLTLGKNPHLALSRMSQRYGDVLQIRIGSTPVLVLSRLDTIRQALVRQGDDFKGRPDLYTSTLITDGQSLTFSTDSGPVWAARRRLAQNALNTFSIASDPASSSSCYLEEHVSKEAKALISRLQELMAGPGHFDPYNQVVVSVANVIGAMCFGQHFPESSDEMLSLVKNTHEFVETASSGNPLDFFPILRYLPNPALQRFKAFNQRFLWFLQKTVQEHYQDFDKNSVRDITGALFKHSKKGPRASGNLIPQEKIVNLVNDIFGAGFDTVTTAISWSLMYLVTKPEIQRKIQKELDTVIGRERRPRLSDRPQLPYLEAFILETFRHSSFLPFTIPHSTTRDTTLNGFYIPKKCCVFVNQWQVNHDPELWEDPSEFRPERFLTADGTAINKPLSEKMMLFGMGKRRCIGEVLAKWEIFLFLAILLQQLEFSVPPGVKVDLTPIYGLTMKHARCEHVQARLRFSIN

Androgen receptor = molecular target: T3, Androgen receptor (Rattus norvegicus, UniProt P15207); further: in other assays of this panel Not Active means under 50% inhibition at 10 µM
T3 sequence (P15207 whole entry): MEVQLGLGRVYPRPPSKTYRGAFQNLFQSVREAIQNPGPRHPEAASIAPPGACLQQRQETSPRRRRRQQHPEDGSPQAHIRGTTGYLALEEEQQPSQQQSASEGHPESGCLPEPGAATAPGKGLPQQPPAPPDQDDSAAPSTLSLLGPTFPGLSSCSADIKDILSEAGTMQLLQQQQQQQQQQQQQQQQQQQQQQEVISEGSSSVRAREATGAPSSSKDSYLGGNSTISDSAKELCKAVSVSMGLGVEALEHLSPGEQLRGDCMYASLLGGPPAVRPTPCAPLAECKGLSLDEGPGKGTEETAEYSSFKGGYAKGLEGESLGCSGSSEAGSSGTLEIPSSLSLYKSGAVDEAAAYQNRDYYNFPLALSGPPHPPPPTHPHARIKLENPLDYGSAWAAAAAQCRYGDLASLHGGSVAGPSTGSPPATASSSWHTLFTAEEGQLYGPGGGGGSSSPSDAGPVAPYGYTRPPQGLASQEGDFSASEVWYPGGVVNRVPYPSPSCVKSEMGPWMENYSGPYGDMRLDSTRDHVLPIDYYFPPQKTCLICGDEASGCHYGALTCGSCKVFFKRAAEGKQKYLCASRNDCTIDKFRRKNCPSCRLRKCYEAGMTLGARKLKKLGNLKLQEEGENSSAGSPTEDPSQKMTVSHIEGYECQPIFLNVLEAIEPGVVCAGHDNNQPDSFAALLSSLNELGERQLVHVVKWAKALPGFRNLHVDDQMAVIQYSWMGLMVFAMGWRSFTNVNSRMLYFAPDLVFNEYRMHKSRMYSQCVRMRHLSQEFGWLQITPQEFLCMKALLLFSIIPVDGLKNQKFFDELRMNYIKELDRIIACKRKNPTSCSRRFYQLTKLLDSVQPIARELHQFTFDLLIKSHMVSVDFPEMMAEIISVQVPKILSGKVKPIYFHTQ

Chain of 5-hydroxytryptamine receptor 6 (P50406 whole entry): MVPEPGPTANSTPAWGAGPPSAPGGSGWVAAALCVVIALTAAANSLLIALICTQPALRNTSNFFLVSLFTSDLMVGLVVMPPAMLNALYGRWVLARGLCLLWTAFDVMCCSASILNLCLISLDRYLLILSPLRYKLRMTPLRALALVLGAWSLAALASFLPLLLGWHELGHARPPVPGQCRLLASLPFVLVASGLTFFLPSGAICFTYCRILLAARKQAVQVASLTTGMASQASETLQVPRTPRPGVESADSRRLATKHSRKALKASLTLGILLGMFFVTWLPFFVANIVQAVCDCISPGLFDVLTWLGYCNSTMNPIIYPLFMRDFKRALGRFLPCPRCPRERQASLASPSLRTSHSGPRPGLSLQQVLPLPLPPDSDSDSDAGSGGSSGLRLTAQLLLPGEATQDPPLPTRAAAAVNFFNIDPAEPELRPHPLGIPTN
Chain of Cytochrome P450 2C19 (P33261 whole entry): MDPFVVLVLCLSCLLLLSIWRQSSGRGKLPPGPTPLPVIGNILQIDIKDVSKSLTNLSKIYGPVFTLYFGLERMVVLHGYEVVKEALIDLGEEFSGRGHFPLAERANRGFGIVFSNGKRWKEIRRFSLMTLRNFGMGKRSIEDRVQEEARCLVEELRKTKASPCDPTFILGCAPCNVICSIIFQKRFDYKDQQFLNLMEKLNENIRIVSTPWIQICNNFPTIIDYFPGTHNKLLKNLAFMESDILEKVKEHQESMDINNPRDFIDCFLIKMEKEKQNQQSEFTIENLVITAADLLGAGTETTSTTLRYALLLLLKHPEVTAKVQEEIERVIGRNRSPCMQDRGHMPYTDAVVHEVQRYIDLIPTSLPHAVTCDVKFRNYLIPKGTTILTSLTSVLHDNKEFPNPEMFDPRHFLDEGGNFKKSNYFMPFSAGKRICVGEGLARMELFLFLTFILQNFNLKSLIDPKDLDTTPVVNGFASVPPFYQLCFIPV

Row | Structure (SMILES) | IC50 [1] | Ki [1] | IC50 ([2]; hela) | IC50 (Carbonic anhydrase 2) | IC50 (Cytochrome P450 2C19) | IC50 [3] | IC50 (Cytochrome P450 1A2) | IC50 ([2]; read-out: IC50) | Ki ([2]; read-out: Ki) | IC50 (Androgen receptor)
1 | CC(=O)[C@@]1(O)CC[C@H]2[C@@H]3C[C@H](C)C4=CC(=O)CC[C@]4(C)[C@H]3CC[C@@]21C | Not Active | Not Active | Not Active | Not Active | 2000 nM | Not Active |  |  |  | 
2 | Cc1oncc1C(=O)Nc1ccc(C(F)(F)F)cc1 [LEFLUNOMIDE] | Not Active | Not Active | Not Active | Not Active |  | Not Active | 500 nM |  |  | 
3 | CN1CCN(CCCN2c3ccccc3Sc3ccc(Cl)cc32)CC1 [PROCHLORPERAZINE] |  |  |  | Not Active |  |  | 2000 nM | 267 nM | 124 nM | 
4 | CSc1ccc(/C=C2/C(C)=C(CC(=O)O)c3cc(F)ccc32)cc1 [SULINDAC SULFIDE] | Not Active | Not Active | Not Active | Not Active |  | Not Active | 2000 nM |  |  | Not Active
5 | Cc1cccc(N(C)C(=S)Oc2ccc3ccccc3c2)c1 [TOLNAFTATE] | Not Active | Not Active | Not Active | Not Active | 3000 nM | Not Active |  |  |  | 
